Measured values as given in US20110152093A1, “Herbicidal compositions comprising flufenacet” (Bayer CropScience AG, priority 2009, published 2011).

Assays:
Type in all cases: in vivo
LOLPE (Lolium perenne) = assay: PE action under various irrigation conditions, test method 6; details: PE application; irrigation from below; g of AS/ha: (A) 90, (B) 1200, (C) 140, (A)+(B)+(C) 90 + 1200 + 140
Protocol: (§1) In the standard design of the test, seeds of various broad-leaved weed and weed grass biotypes (origins) were sown in a 8-13 cm diameter pot filled with natural soil of a standard field soil (loamy silt; non-sterile) and covered with a covering soil layer of about 1 cm. The pots were then cultivated in a greenhouse (12-16 h of light, temperature day 20-22° C., night 15-18° C.) until the time of application. The pots were treated on a laboratory track sprayer with spray liquors comprising the compositions according to the invention, mixtures of the prior art or components used individually. Application of the active compounds or active compound combinations formulated as WG, WP, EC or otherwise was carried out at the appropriate growth stages of the plants. The application rate for the spray application was 100-600 l of water/ha. After the treatment, the plants were returned to the greenhouses.
(§2) About 3 weeks after the application, the soil action or/and foliar action was assessed visually according to a scale of 0-100% in comparison to an untreated comparative group: 0%=no noticeable effect compared to the untreated comparative group; 100%=full effect compared to the untreated comparative group.
(§3) (notes: the term “seeds” also includes vegetative propagation forms such as, for example, rhizome pieces; abbreviations used: h light=hours of illumination, g of AS/ha=gram of active substance per hectare, l/ha=liter per hectare, S=sensitive, R=resistant) • 1. Pre-emergence action against weeds: seeds of various broad-leaved weed and weed grass biotypes (origins) were sown in a 8-13 cm diameter pot filled with natural soil of a standard field soil (loamy silt; non-sterile) and covered with a covering soil layer of about 1 cm. The pots were then cultivated in a greenhouse (12-16 h of light, temperature day 20-22° C., night 15-18° C.) until the time of application. The pots were treated at the BBCH stage 00-10 of the seeds/plants on a laboratory track sprayer with spray liquors comprising the compositions according to the invention, mixtures or components used individually, as WG, WP, EC or other formulations. The application rate for the spray application was 100-600 l of water/ha. After the treatment, the plants were returned to the greenhouses and, when required, treated with fertilizer and watered. • 2. Post-emergence action against weeds: seeds of various broad-leaved weed and weed grass biotypes (origins) were sown in a 8-13 cm diameter pot filled with natural soil of a standard field soil (loamy silt; non-sterile) and covered with a covering soil layer of about 1 cm. The pots were then cultivated in a greenhouse (12-16 h of light, temperature day 20-22° C., night 15-18° C.) until the time of application. The pots were treated at various BBCH stages between 11-25 of the seeds/plants, i.e. generally between two to three weeks after the start of the cultivation, on a laboratory track sprayer with spray liquors comprising the compositions according to the invention, mixtures or components used individually, as WG, WP, EC or other formulations. The application rate for the spray application was 100-600 l of water/ha. After the treatment, the plants were returned to the greenhouses and, when required, treated with fertilizer and watered. • 3. Selective pre-emergence action: seeds of various crop species (origins) were sown in a 8-13 cm diameter pot filled with natural soil of a standard field soil (loamy silt; non-sterile) and covered with a covering soil layer of about 1 cm. The pots were then cultivated in a greenhouse (12-16 h of light, temperature day 20-22° C., night 15-18° C.) until the time of application. The pots were treated at the BBCH stage 00-10 of the seeds/plants on a laboratory track sprayer with spray liquors comprising the compositions according to the invention, mixtures or components used individually, as WG, WP, EC or other formulations. The application rate for the spray application was 100-600 l of water/ha. […]

[1] = tested on: MATCH (Matricaria chamomilla); assay: as above; details: PE application
Protocol: as §1, §2, §3

[2] = tested on: HORVS (Hordeum vulgare, summer barley); assay: Selective post-emergence action (crop compatibility), greenhouse trial, test method 4; details: PO application; g of AS/ha: (A) 240, (B) 1200, (C) 140, (A)+(B)+(C) 240 + 1200 + 140
Protocol: as §1, §2
(notes: the term “seeds” also includes vegetative propagation forms such as, for example, rhizome pieces; abbreviations used: h light=hours of illumination, g of AS/ha=gram of active substance per hectare, l/ha=liter per hectare, S=sensitive, R=resistant) • 1. Pre-emergence action against weeds: seeds of various broad-leaved weed and weed grass biotypes (origins) were sown in a 8-13 cm diameter pot filled with natural soil of a standard field soil (loamy silt; non-sterile) and covered with a covering soil layer of about 1 cm. The pots were then cultivated in a greenhouse (12-16 h of light, temperature day 20-22° C., night 15-18° C.) until the time of application. […]

[3] = tested on: HORVS (Hordeum vulgare, summer barley); assay: PE crop selectivity at different sowing depths, test method 9; details: PE application, g of AS/ha: (A) 90, (B) 1200, (C) 140, (A)+(B)+(C) 90 + 1200 + 140
Protocol: as §1
as §2, with “group. […]” for “group.”

AVEFA (Avena fatua) = assay: PE action at different soil pH values, test method 10; details: PE application, g of AS/ha: (A) 90, (B) 1200, (C) 140, (A)+(B)+(C) 90 + 1200 + 140
Protocol: as §1, §2

POAAN (Poa annua) = assay: Post-emergence (PO) action against weeds, greenhouse trial, test method 2; details: PO application; g of AS/ha: (A) 240, (B) 1200, (C) 140, (A)+(B)+(C) 240 + 1200 + 140
Protocol: as §1, §2
(§4) (notes: the term “seeds” also includes vegetative propagation forms such as, for example, rhizome pieces; abbreviations used: h light=hours of illumination, g of AS/ha=gram of active substance per hectare, l/ha=liter per hectare, S=sensitive, R=resistant) • 1. Pre-emergence action against weeds: seeds of various broad-leaved weed and weed grass biotypes (origins) were sown in a 8-13 cm diameter pot filled with natural soil of a standard field soil (loamy silt; non-sterile) and covered with a covering soil layer of about 1 cm. The pots were then cultivated in a greenhouse (12-16 h of light, temperature day 20-22° C., night 15-18° C.) until the time of application. The pots were treated at the BBCH stage 00-10 of the seeds/plants on a laboratory track sprayer with spray liquors comprising the compositions according to the invention, mixtures or components used individually, as WG, WP, EC or other formulations. The application rate for the spray application was 100-600 l of water/ha. After the treatment, the plants were returned to the greenhouses and, when required, treated with fertilizer and watered. • 2. Post-emergence action against weeds: seeds of various broad-leaved weed and weed grass biotypes (origins) were sown in a 8-13 cm diameter pot filled with natural soil of a standard field soil (loamy silt; non-sterile) and covered with a covering soil layer of about 1 cm. The pots were then cultivated in a greenhouse (12-16 h of light, temperature day 20-22° C., night 15-18° C.) until the time of application. The pots were treated at various BBCH stages between 11-25 of the seeds/plants, i.e. generally between two to three weeks after the start of the cultivation, on a laboratory track sprayer with spray liquors comprising the compositions according to the invention, mixtures or components used individually, as WG, WP, EC or other formulations. The application rate for the spray application was 100-600 l of water/ha. After the treatment, the plants were returned to the greenhouses and, when required, treated with fertilizer and watered. • 3. […]

VIOAR (Viola arvensis) = assay: as above; details: PO application; g of AS/ha: (A) 240, (B) 1200, (C) 140, (A)+(B)+(C) 240 + 1200 + 140
Protocol: as §1, §2, §4

[4] = tested on: HORVS (Hordeum vulgare, summer barley); assay: Selective pre-emergence action (crop compatibility), greenhouse trial, test method 3; details: PE application; g of AS/ha: (A) 90, (B) 1200, (C) 140, (A)+(B)+(C) 90 + 1200 + 140
Protocol: as §1
as §2, with “group. […]” for “group.”

[5] = tested on: LOLSS sensitive (Lolium species); assay: PE action on resistant weed biotypes, test method 8; details: PE application; g of AS/ha: (A) 90, (B) 1200, (C) 140, (A)+(B)+(C) 90 + 1200 + 140, iodosulfuron 10
Protocol: as §1, §2, §3

[6] = tested on: LOLSS resistant (Lolium species); assay: as above; details: PE application; g of AS/ha: (A) 90, (B) 1200, (C) 140, (A)+(B)+(C) 90 + 1200 + 140, iodosulfuron 10
Protocol: as §1, §2, §3

[7] = tested on: ALOMY resistant (Alopecurus myosuroides); assay: as above; details: PE application; g of AS/ha: (A) 90, (B) 1200, (C) 140, (A)+(B)+(C) 90 + 1200 + 140, iodosulfuron 10
Protocol: as §1, §2, §3

[8] = tested on: ALOMY sensitive (Alopecurus myosuroides); assay: as above; details: PE application; g of AS/ha: (A) 90, (B) 1200, (C) 140, (A)+(B)+(C) 90 + 1200 + 140, iodosulfuron 10
Protocol: as §1, §2, §3

[9] = tested on: HORVS (Hordeum vulgare, summer barley); assay: Pre-sowing application (7 days prior to sowing), crop compatibility; details: g of AS/ha: (A) 90, (B) 1200, (C) 140, (A)+(B)+(C) 90 + 1200 + 140
Protocol: as §1
as §2, with “group. […]” for “group.”

Q: With `CCC(CC)Nc1c([N+](=O)[O-])cc(C)c(C)c1[N+](=O)[O-]` [(B) pendimethalin, N-(1-ethylpropyl)-3,4-dimethyl-2,6-dinitrobenzenamine] as the compound, how does the “activity LOLPE” value (LOLPE (Lolium perenne)) read?
A: 10%

Q: What about the “activity MATCH” value ([1]; irrigation from above, g of AS/ha: (A) 90, (B) 1200, (C) 140, (A)+(B)+(C) 90 + 1200 + 90) of the same compound?
A: 30%

Q: And the “activity MATCH” value ([1]; irrigation from below, g of AS/ha: (A) 90, (B) 1200, (C) 140, (A)+(B)+(C) 90 + 1200 + 140)?
A: 18%

Q: And the “activity HORVS (crop plant; visual, scale 0-100%)” value [2]?
A: 10%

Q: And the “activity HORVS 5 mm (crop plant)” value ([3]; sowing depth 5 mm)?
A: 30%

Q: What about the “activity HORVS 20 mm (crop plant)” value ([3]; sowing depth 20 mm) of the same compound?
A: 20%

Q: And the “activity AVEFA pH 7.4” value (AVEFA (Avena fatua); soil pH 7.4)?
A: 10%

Q: And the “activity AVEFA pH 8.4” value (AVEFA (Avena fatua); soil pH 8.4)?
A: 30%

Q: What about the “activity POAAN (visual, scale 0-100%)” value (POAAN (Poa annua)) of the same compound?
A: 0%

Q: What about the “activity VIOAR (visual, scale 0-100%)” value (VIOAR (Viola arvensis)) of the same compound?
A: 30%

Q: And the “activity HORVS (crop plant)” value [4]?
A: 50%

Q: And the “activity LOLSS sensitive” value [5]?
A: 78%

Q: What about the “activity LOLSS resistant” value [6] of the same compound?
A: 0%

Q: And the “activity ALOMY resistant” value [7]?
A: 40%

Q: And the “activity ALOMY sensitive” value [8]?
A: 30%

Q: What about the “activity HORVS (crop plant)” value [9] of the same compound?
A: 30%
